Measured values reported in patent US11591323B2, “Muscarinic agonists as non-steroidal and non-opioid analgesics and methods of use thereof” (Barry University, priority 2019, dated 2023).
“And” between values parts separate entries of the source, which are not always exact repeats. Equal entries are not always repeated. Where two headings read alike, the source gives them in different places.

How the values were obtained:
Design in all cases: host or cells: CHO cells, stably transfected
M3 muscarinic receptor [1] = target: T1, M3 muscarinic receptor (Homo sapiens, UniProt P20309); assay: [3H]NMS competition binding, M3 CHO membranes
M2 muscarinic receptor = target: T2, M2 muscarinic receptor (Homo sapiens, UniProt P08172); assay: inhibition of forskolin-stimulated cAMP, M2 CHO cells (M2Gi); assay type: cell-based
T2 sequence (P08172 1-466): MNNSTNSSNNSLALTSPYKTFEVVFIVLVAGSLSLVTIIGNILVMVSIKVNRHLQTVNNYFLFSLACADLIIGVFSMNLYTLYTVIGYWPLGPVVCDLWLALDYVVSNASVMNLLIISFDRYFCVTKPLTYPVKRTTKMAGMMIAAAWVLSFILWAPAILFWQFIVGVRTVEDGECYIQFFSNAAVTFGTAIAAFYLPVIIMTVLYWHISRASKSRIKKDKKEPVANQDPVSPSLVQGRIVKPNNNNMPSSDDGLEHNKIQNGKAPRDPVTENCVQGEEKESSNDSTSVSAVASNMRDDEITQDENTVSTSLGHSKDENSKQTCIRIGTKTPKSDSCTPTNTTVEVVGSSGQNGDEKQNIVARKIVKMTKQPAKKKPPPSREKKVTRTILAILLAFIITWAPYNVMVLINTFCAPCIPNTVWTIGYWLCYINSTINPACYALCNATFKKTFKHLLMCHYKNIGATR

M1 muscarinic receptor [2] = target: T3, M1 muscarinic receptor (Homo sapiens, UniProt P11229); assay: accumulation of inositol phosphates IPX, M1 CHO cells (M1Gq); assay type: cell-based
T3 sequence (P11229 1-460): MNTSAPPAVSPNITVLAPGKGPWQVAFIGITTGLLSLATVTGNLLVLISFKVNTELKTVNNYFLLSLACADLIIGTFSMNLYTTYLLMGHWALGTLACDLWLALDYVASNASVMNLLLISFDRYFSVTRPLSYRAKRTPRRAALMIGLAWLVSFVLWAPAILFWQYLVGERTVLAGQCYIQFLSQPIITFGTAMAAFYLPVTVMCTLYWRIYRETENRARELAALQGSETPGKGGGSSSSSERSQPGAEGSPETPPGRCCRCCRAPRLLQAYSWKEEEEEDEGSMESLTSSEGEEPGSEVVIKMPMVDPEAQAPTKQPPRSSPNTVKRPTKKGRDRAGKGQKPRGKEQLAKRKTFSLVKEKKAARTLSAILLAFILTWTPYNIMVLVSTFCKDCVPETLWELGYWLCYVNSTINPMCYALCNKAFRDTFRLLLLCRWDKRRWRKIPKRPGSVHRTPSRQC

M5 muscarinic receptor = target: T4, M5 muscarinic receptor (Homo sapiens, UniProt P08912); assay: [3H]NMS competition binding, M5 CHO membranes
T4 sequence (P08912 1-532): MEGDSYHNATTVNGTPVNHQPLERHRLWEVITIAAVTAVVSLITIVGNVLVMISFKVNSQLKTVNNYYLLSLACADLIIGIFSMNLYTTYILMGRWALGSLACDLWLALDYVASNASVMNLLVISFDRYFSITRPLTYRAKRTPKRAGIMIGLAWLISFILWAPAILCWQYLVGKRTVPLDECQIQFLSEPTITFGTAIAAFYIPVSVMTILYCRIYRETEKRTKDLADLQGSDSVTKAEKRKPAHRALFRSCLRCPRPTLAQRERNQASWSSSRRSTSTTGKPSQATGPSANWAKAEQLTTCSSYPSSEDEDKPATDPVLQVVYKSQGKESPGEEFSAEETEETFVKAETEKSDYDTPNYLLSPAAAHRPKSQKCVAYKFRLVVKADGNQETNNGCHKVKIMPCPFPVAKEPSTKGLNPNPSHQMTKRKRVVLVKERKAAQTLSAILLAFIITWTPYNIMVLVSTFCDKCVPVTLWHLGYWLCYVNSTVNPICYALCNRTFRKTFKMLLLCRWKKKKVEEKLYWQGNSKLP

M3 muscarinic receptor [3] = target: T1, M3 muscarinic receptor; assay: accumulation of IPX, M3 CHO cells (M3Gq); assay type: cell-based
M4 muscarinic receptor = target: T5, M4 muscarinic receptor (Homo sapiens, UniProt P08173); assay: [3H]NMS competition binding, M4 CHO membranes
T5 sequence (P08173 1-479): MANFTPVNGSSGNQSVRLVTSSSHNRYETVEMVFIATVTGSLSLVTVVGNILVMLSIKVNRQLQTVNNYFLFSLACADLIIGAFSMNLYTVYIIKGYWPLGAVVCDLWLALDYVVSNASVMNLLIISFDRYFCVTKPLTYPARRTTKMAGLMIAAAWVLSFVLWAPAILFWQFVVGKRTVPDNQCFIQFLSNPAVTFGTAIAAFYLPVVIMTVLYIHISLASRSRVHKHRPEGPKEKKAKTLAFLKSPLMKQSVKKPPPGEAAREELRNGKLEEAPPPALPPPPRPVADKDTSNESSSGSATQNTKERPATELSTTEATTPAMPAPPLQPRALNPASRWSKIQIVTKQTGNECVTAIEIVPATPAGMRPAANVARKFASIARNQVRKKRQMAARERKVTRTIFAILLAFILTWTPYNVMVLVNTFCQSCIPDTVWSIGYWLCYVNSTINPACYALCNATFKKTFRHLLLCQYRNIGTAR

M1 muscarinic receptor [4] = target: T3, M1 muscarinic receptor; assay: [3H]NMS competition binding, M1 CHO membranes
[5] = M2 (↓cAMP), preferential response, Table 7, operational efficacy
[6] = M2 (↓cAMP), preferential response, relative to carbachol, Tables 2, 3, 7
[7] = M2 (↓cAMP), preferential response, to carbachol, Tables 2, 3, 7

T1 sequence (P20309 whole entry): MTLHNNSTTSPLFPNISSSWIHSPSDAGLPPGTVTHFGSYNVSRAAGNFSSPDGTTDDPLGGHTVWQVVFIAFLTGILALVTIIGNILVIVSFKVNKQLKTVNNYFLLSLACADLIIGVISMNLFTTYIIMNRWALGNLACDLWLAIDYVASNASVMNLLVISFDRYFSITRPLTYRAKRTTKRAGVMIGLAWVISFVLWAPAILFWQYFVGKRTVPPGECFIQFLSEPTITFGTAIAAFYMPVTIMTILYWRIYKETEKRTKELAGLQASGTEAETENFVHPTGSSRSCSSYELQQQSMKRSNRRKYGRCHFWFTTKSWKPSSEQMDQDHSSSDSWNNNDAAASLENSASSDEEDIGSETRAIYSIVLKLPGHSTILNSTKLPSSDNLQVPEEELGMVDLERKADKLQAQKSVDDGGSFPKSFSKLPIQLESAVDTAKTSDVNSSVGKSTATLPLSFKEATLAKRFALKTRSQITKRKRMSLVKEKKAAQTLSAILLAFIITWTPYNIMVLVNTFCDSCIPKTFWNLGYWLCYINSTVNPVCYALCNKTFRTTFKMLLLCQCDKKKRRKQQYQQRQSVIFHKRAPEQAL

## C[N+]1(Cc2ccc(Cl)s2)CC=CCC1.[I-] (centres unmarked) [Compound 7D, 1-[(5-chlorothiophen-2-yl)methyl]-1-methyl-1,2,3,6-tetrahydropyridin-1-ium iodide]
M3 muscarinic receptor [1]; competition with 1 nM [3H]NMS, read-out: Inhibition constants (Ki) as negative logarithms, M3 (converted)
  Ki: 3390 nM
M2 muscarinic receptor
  EC50: 3890 nM
  Kd: 6310 nM
M2 muscarinic receptor; CHO
  Emax: 40 ± 2%
M2 muscarinic receptor; [5]
  τ: 0.83 ± 0.08
M2 muscarinic receptor; [6]
  RAi: 0.008 ± 0.001
M2 muscarinic receptor; [7]
  Δlog(τ/KA): 2.05 ± 0.19
M1 muscarinic receptor [2]
  RAi: 0.0165 ± 0.0003
  Δlog(τ/KA): 1.78 ± 0.21
M1 muscarinic receptor [2]; M1 (↑IPX), preferential response, Table 7
  E′MAX: 7.9 ± 0.8 fold over basal
M1 muscarinic receptor [2]; M1 (↑IPX), preferential response, Table 7, operational efficacy
  τ: 0.26 ± 0.03
M1 muscarinic receptor [2]; M1 (↑IPX), preferential response, Table 7, operational model, read-out: pKA (converted)
  Kd: 3980 nM
M1 muscarinic receptor [2]; M1 (↑IPX), preferential response, Table 7, read-out: pEC50 (converted)
  EC50: 3390 nM
M5 muscarinic receptor; Inhibition constants (Ki) as negative logarithms, M5, competition with 1 nM [3H]NMS
  Ki: 1700 nM
M3 muscarinic receptor [3]
  RAi: 0.0050 ± 0.0006
  Δlog(τ/KA): 2.30 ± 0.45
M3 muscarinic receptor [3]; M3 (↑IPX), preferential response, Table 7
  E′MAX: 1.8 ± 0.1 fold over basal
M3 muscarinic receptor [3]; M3 (↑IPX), preferential response, Table 7, operational efficacy
  τ: 0.03 ± 0.01
M3 muscarinic receptor [3]; M3 (↑IPX), preferential response, Table 7, operational model, read-out: pKA (converted)
  Kd: 3980 nM
M3 muscarinic receptor [3]; M3 (↑IPX), preferential response, Table 7, read-out: pEC50 (converted)
  EC50: 3160 nM
M4 muscarinic receptor; Inhibition constants (Ki) as negative logarithms, M4, competition with 1 nM [3H]NMS
  Ki: 3090 nM
M1 muscarinic receptor [4]; competition with 1 nM [3H]NMS, read-out: Inhibition constants (Ki) as negative logarithms, M1 (converted)
  Ki: 1380 nM

## O=C1CCCN1CC#CCN1CCCC1 [oxotremorine, reference compound]
M3 muscarinic receptor [1]; Inhibition constants (KI) as negative logarithms, M3, high site
  Ki: 10 nM
M3 muscarinic receptor [1]; Inhibition constants (KI) as negative logarithms, M3, low site
  Ki: 447 nM
M2 muscarinic receptor
  EC50: 5.75 nM
  Kd: 12.6 nM
M2 muscarinic receptor; M2 (↓cAMP), preferential response, Table 7
  E′MAX: 43 ± 1 % inhibition
M2 muscarinic receptor; [5]
  τ: 0.96 ± 0.08
M2 muscarinic receptor; [6]
  RAi: 6.34 ± 0.15
M2 muscarinic receptor; [7]
  Δlog(τ/KA): −0.81 ± 0.01
M2 muscarinic receptor; M2Gi (↓cAMP), Table 8
  E′MAX: 43 ± 1 % inhibition
  pEC50: 8.24 ± 0.04
  pKA: 7.9 ± 0.1
  τ: 1.0 ± 0.1
M2 muscarinic receptor; M2Gi (↓cAMP), Table 8, relative to carbachol
  RAi: 6.34 ± 0.15
M2 muscarinic receptor; M2Gi (↓cAMP), Table 8, to carbachol
  Δlog(τ/KA): −0.81 ± 0.01
M1 muscarinic receptor [2]
  Kd: 200 nM
  RAi: 3.71 ± 0.29 and 3.84 ± 0.28
  pKA: 6.7 ± 0.1
  Δlog(τ/KA): −0.57 ± 0.06 and −0.58 ± 0.05
  τ: 2.55 ± 0.25 and 2.6 ± 0.3
M1 muscarinic receptor [2]; pEC50
  EC50: 52.5 nM and 55 nM
M5 muscarinic receptor; Inhibition constants (KI) as negative logarithms, M5, high site, reference agonists, high affinity site
  Ki: 12.6 nM
M5 muscarinic receptor; Inhibition constants (KI) as negative logarithms, M5, low site, reference agonists, low affinity site
  Ki: 537 nM
M3 muscarinic receptor [3]
  EC50: 95.5 nM
  E′MAX: 22 ± 2 fold over basal
  Kd: 398 nM
  RAi: 4.14 ± 0.38 and 4.14 ± 0.41
  pEC50: 7.02 ± 0.04
  pKA: 6.4 ± 0.1
  Δlog(τ/KA): −0.62 ± 0.06
  τ: 2.97 ± 0.30 and 3.0 ± 0.3
M4 muscarinic receptor; Inhibition constants (KI) as negative logarithms, M4, high site, reference agonists, high affinity site
  Ki: 12.6 nM
M4 muscarinic receptor; Inhibition constants (KI) as negative logarithms, M4, low site, reference agonists, low affinity site
  Ki: 617 nM
M1 muscarinic receptor [4]; Inhibition constants (KI) as negative logarithms, M1, high site
  Ki: 7.94 nM
M1 muscarinic receptor [4]; Inhibition constants (KI) as negative logarithms, M1, low site
  Ki: 372 nM
